Test results reported in patent US9302999B2, “Substituted triazoles as herbicides” (E. I. DU PONT DE NEMOURS AND COMPANY, priority 2012, dated 2016).

Key:
Type in all cases: in vivo
[1] = system: barley, winter (winter barley, Hordeum vulgare); test: Test D pre-/postemergence: barley, winter
How it was run: (§1)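 Visual 0–100 rating versus untreated controls (0 no effect, 100 complete control), taken 14 to 21 days after treatment in a controlled growth environment. Preemergence: silt loam soil. Postemergence: peat moss/vermiculite medium, plants 2 to 18 cm, 1- to 4-leaf stage. Solvent mixture with surfactant.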

[2] = system: woolly cupgrass (Eriochloa villosa); test: Test C pre-/postemergence: woolly cupgrass
How it was run: (§2)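 Preemergence on seeds in loam/sand, postemergence on 2–18 cm (1–4-leaf) plants in peat-based medium; compounds in non-phytotoxic solvent with surfactant. After 13–15 days in greenhouse, visual rating versus controls, 0 (no effect) to 100 (complete control).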

[3] = system: common (oilseed) sunflower (Helianthus annuus); test: Test C pre-/postemergence: sunflower; details: Preemergence
How it was run: as §2

[4] = system: lambsquarters (Chenopodium album); test: Test D pre-/postemergence: lambsquarters
How it was run: as §1

[5] = system: windgrass (Apera spica-venti); test: Test D pre-/postemergence: windgrass
How it was run: as §1

[6] = system: bermudagrass (Cynodon dactylon); test: Test C pre-/postemergence: bermudagrass
How it was run: as §2

[7] = Postemergence, 31 g ai/ha, scale 0 to 100 (0 no effect, 100 complete control)
[8] = Postemergence, 62 g ai/ha, scale 0 to 100 (0 no effect, 100 complete control)
[9] = Postemergence, 125 g ai/ha, scale 0 to 100, 0 no effect, 100 complete control
[10] = Postemergence, 250 g ai/ha, scale 0 to 100 (0 no effect, 100 complete control)
[11] = Postemergence, 16 g ai/ha, scale 0 to 100
[12] = Postemergence, 250 g ai/ha, scale 0 to 100
[13] = Preemergence, 31 g ai/ha, scale of 0 to 100, 0 is no effect, 100 is complete control
[14] = Preemergence, 62 g ai/ha, scale of 0 to 100, 0 is no effect, 100 is complete control
[15] = Preemergence, 125 g ai/ha, scale 0 to 100, 0 no effect, 100 complete control
[16] = Preemergence, 250 g ai/ha, scale 0 to 100, 0 no effect, 100 complete control
[17] = 31 g ai/ha, scale of 0 to 100, 0 is no effect, 100 is complete control
[18] = 62 g ai/ha, scale of 0 to 100, 0 is no effect, 100 is complete control
[19] = 125 g ai/ha, scale 0 to 100, 0 no effect, 100 complete control
[20] = 250 g ai/ha, scale 0 to 100, 0 no effect, 100 complete control
[21] = Preemergence, 16 g ai/ha, scale 0 to 100, 0 no effect, 100 complete control
[22] = Preemergence, 31 g ai/ha, scale 0 to 100, 0 no effect, 100 complete control
[23] = Preemergence, 62 g ai/ha, scale 0 to 100
[24] = Preemergence, 125 g ai/ha, scale 0 to 100
[25] = Preemergence, 250 g ai/ha, scale 0 to 100

SMILES: COc1nn(-c2ccc(C(F)(F)F)cc2)nc1Cc1ccnc(C(F)F)c1 [Compound 138]
- Plant response rating: Barley, Winter [1, 7]: 5
- Plant response rating: Barley, Winter [1, 8]: 15
- Plant response rating: Barley, Winter [1, 9]: 20
- Plant response rating: Barley, Winter [1, 10]: 20
- Plant response rating, Barley, Winter [1, 11]: 5
- Plant response rating, Cupgrass, Woolly [2, 7]: 50
- Plant response rating, Cupgrass, Woolly [2, 8]: 55
- Plant response rating, Cupgrass, Woolly [2, 9]: 55
- Plant response rating, Cupgrass, Woolly [2, 12]: 85
- Plant response rating, Cupgrass, Woolly [2, 13]: 60
- Plant response rating, Cupgrass, Woolly [2, 14]: 90
- Plant response rating, Cupgrass, Woolly [2, 15]: 95
- Plant response rating, Cupgrass, Woolly [2, 16]: 100
- Plant response rating, Sunflower [3, 17]: 5
- Plant response rating, Sunflower [3, 18]: 10
- Plant response rating, Sunflower [3, 19]: 30
- Plant response rating, Sunflower [3, 20]: 30
- Plant response rating: Lambsquarters [4, 7]: 80
- Plant response rating: Lambsquarters [4, 8]: 90
- Plant response rating: Lambsquarters [4, 9]: 95
- Plant response rating: Lambsquarters [4, 10]: 100
- Plant response rating, Lambsquarters [4, 11]: 70
- Plant response rating: Windgrass [5, 8]: 50
- Plant response rating: Windgrass [5, 9]: 60
- Plant response rating: Windgrass [5, 10]: 90
- Plant response rating, Windgrass [5, 11]: 15
- Plant response rating, Windgrass ([5]; Postemergence, 31 g ai/ha, scale 0 to 100): 30
- Plant response rating, Bermudagrass [6, 7]: 20
- Plant response rating, Bermudagrass [6, 8]: 45
- Plant response rating, Bermudagrass [6, 9]: 75
- Plant response rating, Bermudagrass [6, 12]: 95
- Plant response rating, Bermudagrass [6, 13]: 100
- Plant response rating, Bermudagrass [6, 14]: 100
- Plant response rating, Bermudagrass [6, 15]: 100
- Plant response rating, Bermudagrass [6, 16]: 100

SMILES: Cc1nn(-c2ccc(C(F)(F)F)cc2)nc1Oc1ccnc(C(F)(F)F)c1 [Compound 120]
- Plant response rating: Barley, Winter [1, 7]: 15
- Plant response rating: Barley, Winter [1, 8]: 20
- Plant response rating: Barley, Winter [1, 9]: 20
- Plant response rating: Barley, Winter [1, 10]: 40
- Plant response rating, Barley, Winter [1, 11]: 10
- Plant response rating, Barley, Winter [1, 21]: 0
- Plant response rating, Barley, Winter [1, 22]: 0
- Plant response rating, Barley, Winter [1, 23]: 10
- Plant response rating, Barley, Winter [1, 24]: 15
- Plant response rating, Barley, Winter [1, 25]: 40
- Plant response rating, Cupgrass, Woolly [2, 7]: 10
- Plant response rating, Cupgrass, Woolly [2, 8]: 10
- Plant response rating, Cupgrass, Woolly [2, 9]: 40
- Plant response rating, Cupgrass, Woolly [2, 12]: 45
- Plant response rating, Cupgrass, Woolly [2, 13]: 90
- Plant response rating, Cupgrass, Woolly [2, 14]: 95
- Plant response rating, Cupgrass, Woolly [2, 15]: 98
- Plant response rating, Cupgrass, Woolly [2, 16]: 98
- Plant response rating, Sunflower [3, 17]: 0
- Plant response rating, Sunflower [3, 18]: 0
- Plant response rating, Sunflower [3, 19]: 0
- Plant response rating, Sunflower [3, 20]: 5
- Plant response rating: Lambsquarters [4, 7]: 98
- Plant response rating: Lambsquarters [4, 8]: 100
- Plant response rating: Lambsquarters [4, 9]: 100
- Plant response rating: Lambsquarters [4, 10]: 100
- Plant response rating, Lambsquarters [4, 11]: 95
- Plant response rating, Lambsquarters [4, 22]: 80
- Plant response rating, Lambsquarters [4, 23]: 90
- Plant response rating, Lambsquarters [4, 24]: 100
- Plant response rating, Lambsquarters [4, 25]: 100
- Plant response rating: Windgrass [5, 7]: 15
- Plant response rating: Windgrass [5, 8]: 95
- Plant response rating: Windgrass [5, 9]: 100
- Plant response rating: Windgrass [5, 10]: 100
- Plant response rating, Windgrass [5, 11]: 5
- Plant response rating, Windgrass [5, 21]: 0
- Plant response rating, Windgrass [5, 22]: 80
- Plant response rating, Windgrass [5, 23]: 100
- Plant response rating, Windgrass [5, 24]: 100
- Plant response rating, Windgrass [5, 25]: 100
- Plant response rating, Bermudagrass [6, 7]: 5
- Plant response rating, Bermudagrass [6, 8]: 5
- Plant response rating, Bermudagrass [6, 9]: 5
- Plant response rating, Bermudagrass [6, 12]: 10
- Plant response rating, Bermudagrass [6, 13]: 98
- Plant response rating, Bermudagrass ([6]; Preemergence, 62 g ai/ha, scale 0 to 100, 0 no effect, 100 complete control): 98
- Plant response rating, Bermudagrass [6, 15]: 98
- Plant response rating, Bermudagrass [6, 16]: 100
